Results: patent US11098044B2, “Imidazopyridinyl compounds and use thereof for treatment of neurodegenerative disorders” (1ST Biotherapeutics, Inc., priority 2019, dated 2021)

Experiments:
Format in all cases: biochemical
[1] = target: c-Abl (His-tagged recombinant human ABL1) (Homo sapiens (Human), UniProt P00519); test: c-abl Kinase Assay (ADP-Glo); conditions: ATP (25 μM), Abltide substrate
Procedure: ADP-Glo assay kit was purchased from Promega. Magnesium chloride (MgCl2), bovine serum albumin (BSA), ethylene glycol-bis(p-aminoethyl ether)-N,N,N′,N′-tetraacetic acid (EGTA), triton X-100, 1,4-dithiothreitol (DTT) and dimethyl sulfoxide (DMSO) were purchased from Sigma-Aldrich. HEPES buffer was purchased from Gibco. ABL1 kinase and Abltide were purchased from Signalchem.
c-Abl kinase activity was measured by Promega's ADP-Glo™ Assay. In this assay, His-tagged recombinant human ABL1 (0.25 ng/μl) is incubated with 5 μL of compounds (0.5% DMSO), 5 μL of Abltide (0.01 μg/μl) and 5 μL of ATP (25 μM) in buffer (50 mM HEPES, 7.5; 10 mM MgCl2; 1 mM EGTA; 0.05% BSA; 0.01% Triton X-100; 2 mM DTT). The assay was started by incubating the reaction mixture in a 96-well plate at 30° C. for 30-min. After the incubation, 25 μL ADP-Glo reagent was added and the reaction was incubated at room temperature for 40-min to stop the reaction and degrade residual ATP. The ADP product was then converted to ATP by adding 50 μL per well of detection reagent. Luminescence was detected after 30-min room temperature incubation with the Molecular device I3X plate reader. The IC50 values were calculated from a series of percent inhibition values determined at a range of inhibitor concentration using software routines as implemented in the GraphPad Prism 7 software and Sigma Plot 13.0.

LRRK2 G2019S = LRRK2 G2019S (Homo sapiens (Human), UniProt Q5S007, G2019S); test: LRRK2 G2019S Kinase Assay (Adapta); conditions: 100 μM ATP, LRRKtide substrate; read-out: LRRK2_G2019S IC50
LRRK2 G2019S, sequence (Q5S007 whole entry G2019S): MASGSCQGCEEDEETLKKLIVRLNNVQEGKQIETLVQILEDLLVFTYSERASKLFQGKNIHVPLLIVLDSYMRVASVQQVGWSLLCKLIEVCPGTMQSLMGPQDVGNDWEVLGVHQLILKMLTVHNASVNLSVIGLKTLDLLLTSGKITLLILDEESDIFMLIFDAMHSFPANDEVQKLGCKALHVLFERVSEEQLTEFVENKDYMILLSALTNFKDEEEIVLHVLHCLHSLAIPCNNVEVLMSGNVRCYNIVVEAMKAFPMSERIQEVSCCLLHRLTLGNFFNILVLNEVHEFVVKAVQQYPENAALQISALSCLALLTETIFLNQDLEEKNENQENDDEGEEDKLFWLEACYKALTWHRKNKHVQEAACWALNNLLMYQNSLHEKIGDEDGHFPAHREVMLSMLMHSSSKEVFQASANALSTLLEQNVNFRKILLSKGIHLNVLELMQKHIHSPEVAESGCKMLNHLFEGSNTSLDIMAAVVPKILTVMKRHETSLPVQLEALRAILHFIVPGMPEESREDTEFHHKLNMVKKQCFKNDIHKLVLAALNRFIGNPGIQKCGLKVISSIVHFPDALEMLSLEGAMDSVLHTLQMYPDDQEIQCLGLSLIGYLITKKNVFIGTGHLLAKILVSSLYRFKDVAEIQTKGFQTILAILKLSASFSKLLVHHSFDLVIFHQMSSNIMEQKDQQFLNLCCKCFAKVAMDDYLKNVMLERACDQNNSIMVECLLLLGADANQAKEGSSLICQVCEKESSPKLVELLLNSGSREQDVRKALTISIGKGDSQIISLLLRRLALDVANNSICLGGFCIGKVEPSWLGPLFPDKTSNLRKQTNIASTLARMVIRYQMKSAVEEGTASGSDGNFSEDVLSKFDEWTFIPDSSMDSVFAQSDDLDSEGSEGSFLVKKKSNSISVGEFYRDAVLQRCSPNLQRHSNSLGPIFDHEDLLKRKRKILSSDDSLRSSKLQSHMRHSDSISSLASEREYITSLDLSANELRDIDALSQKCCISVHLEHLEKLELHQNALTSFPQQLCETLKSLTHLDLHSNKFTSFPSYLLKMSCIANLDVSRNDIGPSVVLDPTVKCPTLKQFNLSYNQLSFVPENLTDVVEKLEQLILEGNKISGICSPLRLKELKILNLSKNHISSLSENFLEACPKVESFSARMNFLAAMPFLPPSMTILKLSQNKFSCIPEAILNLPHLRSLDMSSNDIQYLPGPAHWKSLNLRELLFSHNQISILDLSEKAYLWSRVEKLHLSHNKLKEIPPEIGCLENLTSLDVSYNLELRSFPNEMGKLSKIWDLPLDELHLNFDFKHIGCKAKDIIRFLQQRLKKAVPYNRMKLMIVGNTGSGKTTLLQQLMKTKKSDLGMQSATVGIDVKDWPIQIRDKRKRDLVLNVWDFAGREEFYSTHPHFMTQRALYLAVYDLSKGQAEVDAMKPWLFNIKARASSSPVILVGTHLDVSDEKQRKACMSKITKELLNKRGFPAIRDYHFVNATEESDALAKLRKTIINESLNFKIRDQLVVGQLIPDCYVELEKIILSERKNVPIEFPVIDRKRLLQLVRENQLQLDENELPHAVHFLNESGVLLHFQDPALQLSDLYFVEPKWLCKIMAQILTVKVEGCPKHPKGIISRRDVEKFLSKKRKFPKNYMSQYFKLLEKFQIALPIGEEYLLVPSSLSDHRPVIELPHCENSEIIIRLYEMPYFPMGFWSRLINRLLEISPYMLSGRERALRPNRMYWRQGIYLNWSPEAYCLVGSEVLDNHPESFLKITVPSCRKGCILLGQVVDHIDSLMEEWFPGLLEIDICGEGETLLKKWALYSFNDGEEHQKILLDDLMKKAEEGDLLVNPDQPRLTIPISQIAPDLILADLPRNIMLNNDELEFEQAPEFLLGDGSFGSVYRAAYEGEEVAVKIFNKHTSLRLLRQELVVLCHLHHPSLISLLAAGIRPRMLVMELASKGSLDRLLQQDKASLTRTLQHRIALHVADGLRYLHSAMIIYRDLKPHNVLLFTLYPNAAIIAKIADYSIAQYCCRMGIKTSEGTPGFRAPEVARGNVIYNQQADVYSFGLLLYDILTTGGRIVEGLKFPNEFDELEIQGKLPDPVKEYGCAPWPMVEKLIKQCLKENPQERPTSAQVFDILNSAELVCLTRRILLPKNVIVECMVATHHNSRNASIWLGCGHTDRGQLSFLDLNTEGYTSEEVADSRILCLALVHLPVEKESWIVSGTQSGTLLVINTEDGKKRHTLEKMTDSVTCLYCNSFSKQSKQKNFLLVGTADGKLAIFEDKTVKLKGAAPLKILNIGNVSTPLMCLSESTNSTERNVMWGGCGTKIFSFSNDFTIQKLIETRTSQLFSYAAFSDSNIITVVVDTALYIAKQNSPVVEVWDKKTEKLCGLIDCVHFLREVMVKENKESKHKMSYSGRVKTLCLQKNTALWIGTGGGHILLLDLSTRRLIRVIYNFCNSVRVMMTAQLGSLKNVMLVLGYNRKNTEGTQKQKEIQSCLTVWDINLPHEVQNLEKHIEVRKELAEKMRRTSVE
Procedure: (§1) The LRRK2 and LRRK2 G2019S kinase assays were performed using the Adapta™ technology in ThermoFisher Scientific. This experiment was carried out according to the supplier's protocol. Briefly, assay conditions were as follows. The mixture of substrate (LRRKtide) and each kinase was prepared in 50 mM Tris pH 8.5, 0.01% BRIJ-35, 10 mM MgCl2, 1 mM EGTA, 0.02% NaN3. Assays were performed in the presence of 70 μM ATP and 100 μM ATP (KmATP) in LRRK2 and LRRK2 G2019S, respectively. The reaction was progressed at room temperature for 1 hour. Upon completion of kinase reaction, 5 μL of Detection Mix was added and after 60 min incubation time, the emission ratio of 665/615 nm was calculated.

LRRK2 (WT) = LRRK2 (WT) (Homo sapiens (Human), UniProt Q5S007); test: LRRK2 Kinase Assay (Adapta); conditions: 70 μM ATP, LRRKtide substrate
LRRK2 (WT), sequence (Q5S007 whole entry): as the sequence (Q5S007 whole entry G2019S) above, with S2019G counted along it
Procedure: as §1

c-Abl (His-tagged recombinant human ABL1), sequence (P00519 whole entry): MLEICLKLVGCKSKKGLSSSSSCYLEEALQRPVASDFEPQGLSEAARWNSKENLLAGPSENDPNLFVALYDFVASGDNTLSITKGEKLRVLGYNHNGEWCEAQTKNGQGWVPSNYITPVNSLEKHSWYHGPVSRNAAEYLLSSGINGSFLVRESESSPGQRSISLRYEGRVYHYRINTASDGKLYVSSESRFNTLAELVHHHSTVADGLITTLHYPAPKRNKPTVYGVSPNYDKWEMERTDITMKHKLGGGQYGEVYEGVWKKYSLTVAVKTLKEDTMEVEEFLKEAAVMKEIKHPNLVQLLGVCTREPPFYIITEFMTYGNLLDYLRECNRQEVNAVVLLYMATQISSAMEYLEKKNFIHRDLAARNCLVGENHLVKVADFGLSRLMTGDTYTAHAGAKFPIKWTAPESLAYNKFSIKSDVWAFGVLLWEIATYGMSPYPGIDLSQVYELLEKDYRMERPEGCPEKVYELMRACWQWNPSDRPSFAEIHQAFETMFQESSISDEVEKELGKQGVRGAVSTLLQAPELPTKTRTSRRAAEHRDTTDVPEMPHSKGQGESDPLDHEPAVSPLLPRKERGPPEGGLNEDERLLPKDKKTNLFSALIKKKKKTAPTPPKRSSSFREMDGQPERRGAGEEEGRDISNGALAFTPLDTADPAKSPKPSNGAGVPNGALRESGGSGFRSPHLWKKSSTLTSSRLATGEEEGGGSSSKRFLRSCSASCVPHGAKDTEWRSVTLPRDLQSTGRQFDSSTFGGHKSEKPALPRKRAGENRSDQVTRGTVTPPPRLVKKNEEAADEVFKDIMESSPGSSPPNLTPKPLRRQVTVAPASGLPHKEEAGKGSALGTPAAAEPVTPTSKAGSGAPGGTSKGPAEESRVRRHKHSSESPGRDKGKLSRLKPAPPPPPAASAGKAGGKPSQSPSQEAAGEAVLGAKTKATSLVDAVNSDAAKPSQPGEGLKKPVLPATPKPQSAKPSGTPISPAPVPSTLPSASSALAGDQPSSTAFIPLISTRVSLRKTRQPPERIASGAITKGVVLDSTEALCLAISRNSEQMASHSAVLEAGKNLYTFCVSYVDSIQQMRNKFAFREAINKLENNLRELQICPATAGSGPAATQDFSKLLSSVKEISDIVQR

Work on `Cc1cc(Cl)ccc1-c1ccc2nc(NC(=O)[C@@H]3C[C@@H]3F)cn2c1` [Example 29, (1S,2S)—N-(6-(4-chloro-2-methylphenyl)imidazo[1,2-a]pyridin-2-yl)-2-fluorocyclopropane-1-carboxamide] yielded an IC50 [1] of under 0.01 µM, an IC50 (LRRK2 G2019S) of 0.101 to 1 µM and an IC50 (LRRK2 (WT)) of 0.101 to 1 µM.
`Cc1c(Cl)cccc1-c1ccc2nc(NC(=O)[C@@H]3C[C@@H]3F)cn2c1` [Example 30, (1S,2S)—N-(6-(3-chloro-2-methylphenyl)imidazo[1,2-a]pyridin-2-yl)-2-fluorocyclopropane-1-carboxamide] gave an IC50 [1] of under 0.01 µM, an IC50 (LRRK2 G2019S) of 0.101 to 1 µM and an IC50 (LRRK2 (WT)) of 0.101 to 1 µM.
`O=C(Nc1cn2cc(-c3cnccc3C(F)(F)F)ccc2n1)[C@@H]1C[C@@H]1F` [Example 31, (1S,2S)-2-fluoro-N-(6-(4-(trifluoromethyl)pyridin-3-yl)imidazo[1,2-a]pyridin-2-yl)cyclopropane-1-carboxamide] gave an IC50 [1] of 0.101 to 1 µM, an IC50 (LRRK2 G2019S) of 0.101 to 1 µM and an IC50 (LRRK2 (WT)) of over 1 µM.
With `Cc1ccc(-c2ccc3nc(NC(=O)[C@@H]4C[C@@H]4F)cn3c2)c(C)c1` [Example 32, (1S,2S)—N-(6-(2,4-dimethylphenyl)imidazo[1,2-a]pyridin-2-yl)-2-fluorocyclopropane-1-carboxamide] the IC50 [1] was under 0.01 µM, the IC50 (LRRK2 G2019S) was 0.101 to 1 µM and the IC50 (LRRK2 (WT)) was 0.101 to 1 µM.
`Cc1c(F)cccc1-c1ccc2nc(NC(=O)[C@@H]3C[C@@H]3F)c(F)n2c1` [Example 33, (1S,2S)-2-fluoro-N-(3-fluoro-6-(3-fluoro-2-methylphenyl)imidazo[1,2-a]pyridin-2-yl)cyclopropane-1-carboxamide] was tested, and the IC50 [1] was under 0.01 µM, the IC50 (LRRK2 G2019S) was 0.101 to 1 µM and the IC50 (LRRK2 (WT)) was 0.101 to 1 µM.
With `Cc1ccc(C)c(-c2ccc3nc(NC(=O)[C@@H]4C[C@@H]4F)cn3c2)c1` [Example 34, (1S,2S)—N-(6-(2,5-dimethylphenyl)imidazo[1,2-a]pyridin-2-yl)-2-fluorocyclopropane-1-carboxamide] the IC50 [1] was under 0.01 µM, the IC50 (LRRK2 G2019S) was 0.101 to 1 µM and the IC50 (LRRK2 (WT)) was 0.101 to 1 µM.
For `O=C1Cc2ccc(-c3ccc4nc(NC(=O)[C@@H]5C[C@@H]5F)cn4c3)cc2N1` [Example 35, (1S,2S)-2-fluoro-N-(6-(2-oxoindolin-6-yl)imidazo[1,2-a]pyridin-2-yl)cyclopropane-1-carboxamide], the IC50 [1] was 0.01 to 0.1 µM, the IC50 (LRRK2 G2019S) was over 1 µM and the IC50 (LRRK2 (WT)) was over 1 µM.
`N#Cc1ccncc1-c1ccc2nc(NC(=O)[C@@H]3C[C@@H]3F)cn2c1` [Example 36, (1S,2S)—N-(6-(4-cyanopyridin-3-yl)imidazo[1,2-a]pyridin-2-yl)-2-fluorocyclopropane-1-carboxamide] showed an IC50 [1] of 0.101 to 1 µM, an IC50 (LRRK2 G2019S) of 0.101 to 1 µM and an IC50 (LRRK2 (WT)) of over 1 µM.
Work on `Cc1c(F)ccc(-c2ccc3nc(NC(=O)[C@@H]4C[C@@H]4F)cn3c2)c1C` [Example 37, (1S,2S)-2-fluoro-N-(6-(4-fluoro-2,3-dimethylphenyl)imidazo[1,2-a]pyridin-2-yl)cyclopropane-1-carboxamide] yielded an IC50 [1] of under 0.01 µM, an IC50 (LRRK2 G2019S) of 0.101 to 1 µM and an IC50 (LRRK2 (WT)) of 0.101 to 1 µM.
Work on `Cc1cc(F)cc(C)c1-c1ccc2nc(NC(=O)[C@@H]3C[C@@H]3F)cn2c1` [Example 38, (1S,2S)-2-fluoro-N-(6-(4-fluoro-2,6-dimethylphenyl)imidazo[1,2-a]pyridin-2-yl)cyclopropane-1-carboxamide] yielded an IC50 [1] of under 0.01 µM, an IC50 (LRRK2 G2019S) of 0.101 to 1 µM and an IC50 (LRRK2 (WT)) of 0.101 to 1 µM.
`Cc1cc(F)ccc1-c1ccc2nc(NC(=O)[C@@H]3C[C@@H]3F)cn2c1` [Example 39, (1S,2S)-2-fluoro-N-(6-(4-fluoro-2-methylphenyl)imidazo[1,2-a]pyridin-2-yl)cyclopropane-1-carboxamide] was tested, and the IC50 [1] was under 0.01 µM, the IC50 (LRRK2 G2019S) was 0.01 to 0.1 µM and the IC50 (LRRK2 (WT)) was 0.101 to 1 µM.
With `Cc1ccc(-c2cc[nH]c2)cc1-c1ccc2nc(NC(=O)[C@@H]3C[C@@H]3F)cn2c1` [Example 40, (1S,2S)-2-fluoro-N-(6-(2-methyl-5-(1H-pyrrol-3-yl)phenyl)imidazo[1,2-a]pyridin-2-yl)cyclopropane-1-carboxamide] the IC50 [1] was under 0.01 µM, the IC50 (LRRK2 G2019S) was 0.01 to 0.1 µM and the IC50 (LRRK2 (WT)) was 0.101 to 1 µM.
`Cc1ccsc1-c1ccc2nc(NC(=O)[C@@H]3C[C@@H]3F)cn2c1` [Example 41, (1S,2S)-2-fluoro-N-(6-(3-methylthiophen-2-yl)imidazo[1,2-a]pyridin-2-yl)cyclopropane-1-carboxamide] showed an IC50 [1] of under 0.01 µM, an IC50 (LRRK2 G2019S) of 0.01 to 0.1 µM and an IC50 (LRRK2 (WT)) of 0.01 to 0.1 µM.
For `Cc1cc(F)c(O)cc1-c1ccc2nc(NC(=O)[C@@H]3C[C@@H]3F)cn2c1` [Example 43, (1S,2S)-2-fluoro-N-(6-(4-fluoro-5-hydroxy-2-methylphenyl)imidazo[1,2-a]pyridin-2-yl)cyclopropane-1-carboxamide], the IC50 [1] was under 0.01 µM, the IC50 (LRRK2 G2019S) was 0.01 to 0.1 µM and the IC50 (LRRK2 (WT)) was 0.101 to 1 µM.
For `Cc1c(-c2ccc3nc(NC(=O)[C@@H]4C[C@@H]4F)cn3c2)ccc(F)c1F` [Example 44, (1S,2S)—N-(6-(3,4-difluoro-2-methylphenyl)imidazo[1,2-a]pyridin-2-yl)-2-fluorocyclopropane-1-carboxamide], the IC50 [1] was under 0.01 µM, the IC50 (LRRK2 G2019S) was 0.01 to 0.1 µM and the IC50 (LRRK2 (WT)) was 0.101 to 1 µM.
Work on `Cc1c(F)ccc(F)c1-c1ccc2nc(NC(=O)[C@@H]3C[C@@H]3F)cn2c1` [Example 45, (1S,2S)—N-(6-(3,6-difluoro-2-methylphenyl)imidazo[1,2-a]pyridin-2-yl)-2-fluorocyclopropane-1-carboxamide] yielded an IC50 [1] of under 0.01 µM, an IC50 (LRRK2 G2019S) of 0.01 to 0.1 µM and an IC50 (LRRK2 (WT)) of 0.101 to 1 µM.
`Cc1c(-c2ccc3nc(NC(=O)[C@@H]4C[C@@H]4F)cn3c2)ccc(Cl)c1F` [Example 46, (1S,2S)—N-(6-(4-chloro-3-fluoro-2-methylphenyl)imidazo[1,2-a]pyridin-2-yl)-2-fluorocyclopropane-1-carboxamide] gave an IC50 [1] of under 0.01 µM, an IC50 (LRRK2 G2019S) of 0.101 to 1 µM and an IC50 (LRRK2 (WT)) of 0.101 to 1 µM.
`Cc1ccnc(F)c1-c1ccc2nc(NC(=O)[C@@H]3C[C@@H]3F)cn2c1` [Example 47, (1S,2S)-2-fluoro-N-(6-(2-fluoro-4-methylpyridin-3-yl)imidazo[1,2-a]pyridin-2-yl)cyclopropane-1-carboxamide] gave an IC50 [1] of 0.01 to 0.1 µM, an IC50 (LRRK2 G2019S) of 0.01 to 0.1 µM and an IC50 (LRRK2 (WT)) of 0.101 to 1 µM.
`Cc1cc(N)ncc1-c1ccc2nc(NC(=O)[C@@H]3C[C@@H]3F)cn2c1` [Example 49, (1S,2S)—N-(6-(6-amino-4-methylpyridin-3-yl)imidazo[1,2-a]pyridin-2-yl)-2-fluorocyclopropane-1-carboxamide] gave an IC50 [1] of under 0.01 µM, an IC50 (LRRK2 G2019S) of over 1 µM and an IC50 (LRRK2 (WT)) of over 1 µM.
`Cc1c(F)cc(N)cc1-c1ccc2nc(NC(=O)[C@@H]3C[C@@H]3F)cn2c1` [Example 50, (1S,2S)—N-(6-(5-amino-3-fluoro-2-methylphenyl)imidazo[1,2-a]pyridin-2-yl)-2-fluorocyclopropane-1-carboxamide] showed an IC50 [1] of under 0.01 µM, an IC50 (LRRK2 G2019S) of 0.01 to 0.1 µM and an IC50 (LRRK2 (WT)) of 0.01 to 0.1 µM.
Work on `Cc1ccc2c(c1-c1ccc3nc(NC(=O)[C@@H]4C[C@@H]4F)cn3c1)CC(=O)N2` [Example 51, (1S,2S)-2-fluoro-N-(6-(5-methyl-2-oxoindolin-4-yl)imidazo[1,2-a]pyridin-2-yl)cyclopropane-1-carboxamide] yielded an IC50 [1] of under 0.01 µM, an IC50 (LRRK2 G2019S) of over 1 µM and an IC50 (LRRK2 (WT)) of over 1 µM.
`Cc1cccc(Cl)c1-c1ccc2nc(NC(=O)[C@@H]3C[C@@H]3F)cn2c1` [Example 52, (1S,2S)—N-(6-(2-chloro-6-methylphenyl)imidazo[1,2-a]pyridin-2-yl)-2-fluorocyclopropane-1-carboxamide] showed an IC50 [1] of under 0.01 µM, an IC50 (LRRK2 G2019S) of 0.01 to 0.1 µM and an IC50 (LRRK2 (WT)) of 0.101 to 1 µM.
